According to paper PMC5513091, “A novel Alzheimer’s disease drug candidate targeting inflammation and fatty acid metabolism” (Alzheimer's Research & Therapy, 2017):

Legend:
Caco 2 = Caco 2 Transport; assay type: in vitro ADME
[1] = Free feeding CAD-31 plasma and brain levels in mice; assay type: in vivo
Method: Sprague-Dawley rats had free access to food and water. CAD-31 was given by gavage to rats at 20 mg/kg in corn oil and intravenously in 15% HS 15/PBS. Whole-blood samples were collected from the jugular vein at every time point and brain collected after 20-ml saline perfusion. CAD-31 was extracted with acetonitrile and compared with standards on a TSQ Quantiva™ Triple Quadrupole Mass Spectrometer (Thermo Scientific, Waltham, MA, USA). For the mouse feeding studies, mice had free access to food containing 200 ppm CAD-31. Blood was collected by heart puncture, and the brain concentration was determined as with rats.

[2] = test system: panel of 60 brain ion channels, transporters, and receptors; assay: Lead Profile Screen; assay type: binding
Excerpt: Before undertaking animal experiments, it is important to determine if a new drug candidate has a chance for further clinical development by determining its pharmacological properties of bioavailability and brain penetrance as well as predicted safety.

hERG = hERG (Homo sapiens, UniProt Q12809); assay: hERG assay
[3] = mice fed ad libitum, 200 ppm in chow (about 10 mg/kg/day)

Sequence of hERG (Q12809 whole entry): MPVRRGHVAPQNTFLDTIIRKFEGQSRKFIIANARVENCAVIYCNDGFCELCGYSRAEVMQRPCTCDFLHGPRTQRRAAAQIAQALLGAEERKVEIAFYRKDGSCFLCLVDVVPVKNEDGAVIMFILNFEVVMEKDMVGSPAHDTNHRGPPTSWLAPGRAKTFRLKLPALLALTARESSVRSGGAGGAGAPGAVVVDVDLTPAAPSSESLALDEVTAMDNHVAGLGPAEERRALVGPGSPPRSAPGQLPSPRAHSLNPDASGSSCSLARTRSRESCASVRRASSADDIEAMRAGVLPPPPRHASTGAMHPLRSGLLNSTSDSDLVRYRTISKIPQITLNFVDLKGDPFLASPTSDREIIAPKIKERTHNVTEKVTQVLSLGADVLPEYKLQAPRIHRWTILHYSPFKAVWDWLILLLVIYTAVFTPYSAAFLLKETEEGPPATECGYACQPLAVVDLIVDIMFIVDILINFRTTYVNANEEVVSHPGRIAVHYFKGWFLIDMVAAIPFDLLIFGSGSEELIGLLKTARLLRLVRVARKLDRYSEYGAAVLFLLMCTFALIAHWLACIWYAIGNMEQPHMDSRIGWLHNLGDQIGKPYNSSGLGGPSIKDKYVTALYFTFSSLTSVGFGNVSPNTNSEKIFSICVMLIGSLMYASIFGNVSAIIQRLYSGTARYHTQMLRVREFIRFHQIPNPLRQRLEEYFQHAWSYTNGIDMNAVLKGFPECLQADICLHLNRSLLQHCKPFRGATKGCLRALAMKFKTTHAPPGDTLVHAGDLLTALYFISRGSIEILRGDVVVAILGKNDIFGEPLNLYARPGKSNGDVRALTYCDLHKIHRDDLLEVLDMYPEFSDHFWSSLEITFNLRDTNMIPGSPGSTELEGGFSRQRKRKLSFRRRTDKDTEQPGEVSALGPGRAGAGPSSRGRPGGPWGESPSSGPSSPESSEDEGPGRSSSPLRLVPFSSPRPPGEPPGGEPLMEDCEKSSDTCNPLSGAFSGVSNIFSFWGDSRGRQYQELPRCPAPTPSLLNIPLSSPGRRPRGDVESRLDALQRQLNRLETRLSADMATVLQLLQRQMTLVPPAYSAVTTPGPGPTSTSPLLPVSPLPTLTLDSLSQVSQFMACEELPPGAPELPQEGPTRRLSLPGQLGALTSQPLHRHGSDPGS

## Cc1ccc(N(/N=C/c2cccc(OC(F)(F)F)c2)C(=O)C(F)(F)F)c(C)c1 [CAD-31]
Caco 2
  Caco 2 Transport: High
[1]; [3]
  maximum brain concentration, free-fed: 53 nM
  maximum plasma concentration, free-fed: 82 nM
[1]; mice, 200 ppm in food
  Free-Fed ~10 mg/kg/day Brain: 0.053 µM
  Free-Fed ~10 mg/kg/day Plasma: 0.082 µM
[2]; 10 μM, 60 brain ion channels, transporters, and receptors
  interaction with proteins in the lead profile screen panel: did not interact
[2]; all targets of the panel
  EC50: > 10 µM
hERG; 10 μM
  activity in the hERG assay: showed no sign of acute toxicity or activity
hERG; human
  EC50 at 10 µM: > 10 µM
Micronucleus assay
  EC50 at 10 µM: > 10 µM
Micronucleus assay; 10 μM
  activity in the micronucleus assay: showed no sign of acute toxicity or activity
